Laboratory results from US12383479B2 (LG HOUSEHOLD & HEALTH CARE LTD., priority 2021, dated 2025).
Converted amounts (≈) assume the structure as drawn.

Legend:
[1] = 25° C.; cited from earlier work
[2] = Experimental Example 1: solubility of palmitoylethanolamide in each polyol solvent; assay type: physicochemical; settings: 25° C. for 24 hours
Text: Polyols representatively used as solvents of cosmetics were chosen, which were propanediol, glycerin, […], 2,3-butanediol, pentylene glycol, dipropylene glycol, propylene glycol, butylene glycol, ethoxydiglycerol, and 1,2-hexanediol.

[3] = Experimental Example 2: solubility of palmitoylethanolamide with combined use of selected solvents and 2,3-butanediol; assay type: physicochemical; settings: 1 wt % palmitoylethanolamide, 25° C. for 4 weeks, regardless of weight ratio
[4] = 0.5 wt % and 1 wt % palmitoylethanolamide

- solubility in 1,2-hexanediol [2, 4]: good solubility
- solubility in pentylene glycol [2, 4]: good solubility
- solubility in the remaining polyols ([2]; propanediol, glycerin, ethanol, 2,3-butanediol, dipropylene glycol, propylene glycol, butylene glycol, ethoxydiglycerol, 0.5 and 1 wt %): precipitation
- solubility in 1,2-hexanediol combined with 2,3-butanediol [3]: dissolved
- solubility in pentylene glycol combined with 2,3-butanediol [3]: dissolved
Compound: CCCCCCCCCCCCCCCC(=O)NCCO [palmitoylethanolamide, N-(2-hydroxyethyl)hexadecanamide]
- water solubility [1]: 0.4431 µg/mL (≈ 1.48 µM)
